Source: US20060211725A1, “Use” (Astellas Pharma Inc., priority 2002, published 2006)
“Also recorded” adds a separate entry of the source.

How the values were obtained:
[1] = system: F344 kidney allograft in LEW recipient rats; experiment: Kidney graft histology, modified Banff criteria (Example 1); type: in vivo, rat; conditions: for Banff grade: Fibro-intimal Hyperplasia / Banff grade: Glomerulitis / Banff grade: Glomerulosclerosis / Banff grade: Inflammation / Banff grade: Mesangiolysis / Banff grade: Transplant Glomerulopathy / Banff grade: Tubular Atrophy / Banff grade: Tubulitis / Banff grade: Vasculitis: graft day 90, one line per rat; for approximate cumulative reduction in Banff score: fibro-intimal hyperplasia / approximate cumulative reduction in Banff score: glomerulitis / approximate cumulative reduction in Banff score: glomerulosclerosis / approximate cumulative reduction in Banff score: interstitial inflammation / approximate cumulative reduction in Banff score: mesangiolysis / approximate cumulative reduction in Banff score: transplant glomerulopathy / approximate cumulative reduction in Banff score: tubular atrophy / approximate cumulative reduction in Banff score: tubulitis / approximate cumulative reduction in Banff score: vasculitis: vs untreated allograft control
Experimental: (§1) Inbred male Lewis rats (LEW) (RT1^I), weighing 250-300 g, were used as kidney transplantation recipients. Inbred male LEW and Fisher (F344) (RT1^IvI), weighing 250-350 g, were used as isograft and allograft donor rats, respectively. Kidney transplantation was performed using the modified technique of Fisher and Lee. [Fisher et al., Surgery, 58:904-914, 1965] Survival of kidney transplant was measured as time of recipient rat survival. Blood and 24 hr urine samples were collected once a week for plasma creatinine, proteinuria, and the measurement of antibody titer against donor glomeruli basement membrane protein (GBM). Kidney grafts were harvested on the 90th day posttranspalantation and subjected to histology and reverse transcriptase-polymerase chain reaction (RT-PCR) analysis. The compound (I), at doses of 10 mg/kg and 20 mg/kg were administered orally to recipient rats daily from day 0 to day 9 after transplantation. Control isograft and allograft recipients received no drug after transplantation.
Kidney graft tissues were harvested from recipients on day 90th after transplantation for histological analysis. Graft samples were fixed in 10% NBF and subsequently processed then immediately embedded in ParaPlast™ paraffin embedding media. Samples were sectioned at 3 μm, pre-warmed, deparaffinized, rehydrated, and subsequently stained in one of four processes: Hematoxylin and Eosin, Per-Iodic Acid Schiff, Verhoeff's Combined Elastic Trichrome, and Per-Iodic Acid Silver Methenamine. Histological sections were blindly evaluated by two histologists and scored semiquantitatively based on modified Banff' criteria for transplant pathology. [Solez et al., Kidney Int., 44:411-422, 1993]

[2] = system: F344 kidney allograft in LEW recipient rats; experiment: Recipient kidney function: plasma creatinine and proteinuria (Example 1); type: in vivo, rat; conditions: weekly for 90 days
Experimental: as §1
The recipient's kidney function was determined by measuring their plasma creatinine and proteinuria once a week for 90 days. Blood and urine samples were collected from recipients with kidney grafts described in the above. Plasma creatinine was tested by Sigma Creatinine Kit and proteinuria by Bio-Rad Protein assay.

[3] = system: antibody against F344 rat glomeruli basement membrane protein; experiment: ELISA of plasma antibody against donor GBM (Example 1); type: in vivo; conditions: near days 20, 40, 90
Experimental: as §1
Specific antibody against F344 rat glomeruli basement membrane protein in plasma from LEW recipients with F344 kidneys were also measured in the isograft, untreated allograft and allograft treated with the compound (I) at doses of 10 mg/kg and 20 mg/kg near days 20, 40, and 90 after transplantation by using ELISA assay.

[4] = system: F344 kidney allograft in LEW recipient rats; experiment: Kidney graft histology under rescue treatment, modified Banff criteria (Example 3); type: in vivo, rat
Experimental: (§2) The rats and kidney transplantation methods described in Example 1 were used. […] The isograft and untreated allograft served as control groups. Blood and urine samples were collected once a week from recipients with kidney grafts described in Example 1 for measuring their plasma creatinine and proteinuria. Plasma creatinine was tested by Sigma Creatinine Kit and proteinuria by Bio-Rad Protein assay.
Using the methods described in Example 1, histological changes of chronic allograft rejection under rescue treatment of the compound (I) were analyzed. Histological sections were blindly evaluated by two histologists and scored semiquantitatively based on modified Banff' criteria for transplant pathology.

[5] = system: F344 kidney allograft in LEW recipient rats; experiment: Recipient kidney function, treatment with brief tacrolimus (Example 4); type: in vivo, rat
Experimental: The rats and kidney transplantation methods described in Example 1 were used. Tacrolimus at dose of 1 mg/kg from day 0 to day 9 after transplantation, and the compound (I) at doses of 10 mg/kg and 15 mg/kg from day 28 today 60 after transplantation were administered orally to recipient rats. In this study LEW recipients were briefly treated with oral tacrolimus at 1 mg/kg/day for 10 days after transplantation to avoid acute rejection and slow chronic rejection that gradually destroys the F344 kidney graft, resulting in functional and histological changes similar to the chronic rejection in human. The isograft, untreated allograft and allograft treated with tacrolimus 1 mg/kg for 10 days alone served as control groups. Blood and urine samples were collected once a week from recipients with kidney grafts described in Example 1 for measuring their plasma creatinine and proteinuria. Plasma creatinine was tested by Sigma Creatinine Kit and proteinuria by Bio-Rad Protein assay.

[6] = system: F344 kidney allograft in LEW recipient rats; experiment: Recipient kidney function under rescue treatment of chronic rejection (Example 3); type: in vivo, rat
Experimental: as §2

[7] = 20 mg/kg for 3 weeks during ongoing chronic rejection, vs untreated allograft control
[8] = rescue, From day 40-70 (20 mg/kg for 3 weeks), one line per rat
[9] = rescue 20 mg/kg PO for 3 weeks from onset of raised creatinine or proteinuria, after drug discontinued

With `C#CCC/C(O)=C(\C#N)C(=O)Nc1ccc(C(F)(F)F)cc1` [Compound (I), (2Z)-2-cyano-3-hydroxy-N-[4-(trifluoromethyl)phenyl]-2-hepten-6-ynamide] the “Banff grade: Fibro-intimal Hyperplasia” value ([1]; 10 mg from day 0-9) was “++ ((++):Grade 2, Moderate); also recorded: − ((−):Grade 0, Normal)”, the “Banff grade: Glomerulitis” value ([1]; 10 mg from day 0-9) was “+ ((+):Grade 1, Mild); also recorded: − ((−):Grade 0, Normal)” and the “Banff grade: Glomerulosclerosis” value ([1]; 10 mg from day 0-9) was “− ((−):Grade 0, Normal); also recorded: + ((+):Grade 1, Mild)”. The “Banff grade: Inflammation” value ([1]; 10 mg from day 0-9) was “+ ((+):Grade 1, Mild); also recorded: ++ ((++):Grade 2, Moderate)”, the “Banff grade: Mesangiolysis” value ([1]; 10 mg from day 0-9) was “− ((−):Grade 0, Normal); also recorded: + ((+):Grade 1, Mild)” and the “Banff grade: Transplant Glomerulopathy” value ([1]; 10 mg from day 0-9) was “− ((−):Grade 0, Normal); also recorded: + ((+):Grade 1, Mild)”. The “Banff grade: Tubular Atrophy” value ([1]; 10 mg from day 0-9) was “+ ((+):Grade 1, Mild)”, the “Banff grade: Tubulitis” value ([1]; 10 mg from day 0-9) was “− ((−):Grade 0, Normal)” and the “Banff grade: Vasculitis” value ([1]; 10 mg from day 0-9) was “+ ((+):Grade 1, Mild); also recorded: +++ ((+++):Grade 3, Severe)”. For the same compound, the “approximate cumulative reduction in Banff score: fibro-intimal hyperplasia” value ([1]; 10 mg/kg PO day 0-9) was roughly 63%, the “approximate cumulative reduction in Banff score: glomerulitis” value ([1]; 10 mg/kg PO day 0-9) was roughly 75% and the “approximate cumulative reduction in Banff score: glomerulosclerosis” value ([1]; 10 mg/kg PO day 0-9) was roughly 83%. The “approximate cumulative reduction in Banff score: interstitial inflammation” value ([1]; 10 mg/kg PO day 0-9) was roughly 50%, the “approximate cumulative reduction in Banff score: mesangiolysis” value ([1]; 10 mg/kg PO day 0-9) was roughly 83% and the “approximate cumulative reduction in Banff score: transplant glomerulopathy” value ([1]; 10 mg/kg PO day 0-9) was roughly 79%. For the same compound, the “approximate cumulative reduction in Banff score: tubular atrophy” value ([1]; 10 mg/kg PO day 0-9) was roughly 40%, the “approximate cumulative reduction in Banff score: tubulitis” value ([1]; 10 mg/kg PO day 0-9) was roughly 100% and the “approximate cumulative reduction in Banff score: vasculitis” value ([1]; 10 mg/kg PO day 0-9) was roughly 33%. For the same compound, the “Banff grade: Fibro-intimal Hyperplasia” value ([1]; 20 mg from day 0-9) was “++ ((++):Grade 2, Moderate); also recorded: + ((+):Grade 1, Mild)”, the “Banff grade: Glomerulitis” value ([1]; 20 mg from day 0-9) was “++ ((++):Grade 2, Moderate); also recorded: + ((+):Grade 1, Mild); also recorded: − ((−):Grade 0, Normal)” and the “Banff grade: Glomerulosclerosis” value ([1]; 20 mg from day 0-9) was “− ((−):Grade 0, Normal)”. For the same compound, the “Banff grade: Inflammation” value ([1]; 20 mg from day 0-9) was “+ ((+):Grade 1, Mild)”, the “Banff grade: Mesangiolysis” value ([1]; 20 mg from day 0-9) was “− ((−):Grade 0, Normal)” and the “Banff grade: Transplant Glomerulopathy” value ([1]; 20 mg from day 0-9) was “− ((−):Grade 0, Normal)”. The “Banff grade: Tubular Atrophy” value ([1]; 20 mg from day 0-9) was “+ ((+):Grade 1, Mild); also recorded: − ((−):Grade 0, Normal)”, the “Banff grade: Tubulitis” value ([1]; 20 mg from day 0-9) was “− ((−):Grade 0, Normal)” and the “Banff grade: Vasculitis” value ([1]; 20 mg from day 0-9) was “+++ ((+++):Grade 3, Severe); also recorded: − ((−):Grade 0, Normal)”. For the same compound, the “approximate cumulative reduction in Banff score: fibro-intimal hyperplasia” value ([1]; 20 mg/kg PO day 0-9) was roughly 44%, the “approximate cumulative reduction in Banff score: glomerulitis” value ([1]; 20 mg/kg PO day 0-9) was roughly 38% and the “approximate cumulative reduction in Banff score: glomerulosclerosis” value ([1]; 20 mg/kg PO day 0-9) was roughly 100%. For the same compound, the “approximate cumulative reduction in Banff score: interstitial inflammation” value ([1]; 20 mg/kg PO day 0-9) was roughly 67%, the “approximate cumulative reduction in Banff score: mesangiolysis” value ([1]; 20 mg/kg PO day 0-9) was roughly 100% and the “approximate cumulative reduction in Banff score: transplant glomerulopathy” value ([1]; 20 mg/kg PO day 0-9) was roughly 100%. For the same compound, the “approximate cumulative reduction in Banff score: tubular atrophy” value ([1]; 20 mg/kg PO day 0-9) was roughly 85%, the “approximate cumulative reduction in Banff score: tubulitis” value ([1]; 20 mg/kg PO day 0-9) was roughly 100% and the “approximate cumulative reduction in Banff score: vasculitis” value ([1]; 20 mg/kg PO day 0-9) was roughly 50%. For the same compound, the plasma creatinine ([2]; 10 mg/kg PO day 0-9) was “maintained normal creatinine”, the proteinuria ([2]; 10 mg/kg PO day 0-9) was “undetectable proteinuria” and the plasma creatinine ([2]; 20 mg/kg PO day 0-9) was “maintained normal creatinine”. For the same compound, the proteinuria ([2]; 20 mg/kg PO day 0-9) was “undetectable proteinuria”, the “production of antibody against donor GBM in plasma” value ([3]; 10 mg/kg PO day 0-9) was “a trend of reduced production of antibody against donor GBM” and the “production of antibody against donor GBM in plasma” value ([3]; 20 mg/kg PO day 0-9) was “a trend of reduced production of antibody against donor GBM”. For the same compound, the “approximate cumulative reduction in Banff score: fibro-intimal hyperplasia” value [4, 7] was roughly 53%, the “approximate cumulative reduction in Banff score: glomerulitis” value [4, 7] was roughly 38% and the “approximate cumulative reduction in Banff score: interstitial inflammation” value [4, 7] was roughly 50%. The “approximate cumulative reduction in Banff score: mesangiolysis” value [4, 7] was roughly 33%, the “approximate cumulative reduction in Banff score: transplant glomerulopathy” value [4, 7] was roughly 89% and the “approximate cumulative reduction in Banff score: tubular atrophy” value [4, 7] was roughly 42%. The “approximate cumulative reduction in Banff score: tubulitis” value [4, 7] was roughly 70%, the “approximate cumulative reduction in Banff score: vasculitis” value [4, 7] was roughly 92% and the “Banff grade: Fibro-intimal Hyperplasia” value [4, 8] was “++ ((++):Grade 2, Moderate); also recorded: − ((−):Grade 0, Normal)”. The “Banff grade: Glomerulitis” value [4, 8] was “+ ((+):Grade 1, Mild); also recorded: − ((−):Grade 0, Normal); also recorded: ++ ((++):Grade 2, Moderate)”, the “Banff grade: Glomerulosclerosis” value [4, 8] was “− ((−):Grade 0, Normal); also recorded: + ((+):Grade 1, Mild)” and the “Banff grade: Inflammation” value [4, 8] was “+ ((+):Grade 1, Mild); also recorded: ++ ((++):Grade 2, Moderate)”. The “Banff grade: Mesangiolysis” value [4, 8] was “− ((−):Grade 0, Normal); also recorded: + ((+):Grade 1, Mild)”, the “Banff grade: Transplant Glomerulopathy” value [4, 8] was “− ((−):Grade 0, Normal); also recorded: + ((+):Grade 1, Mild)” and the “Banff grade: Tubular Atrophy” value [4, 8] was “− ((−):Grade 0, Normal); also recorded: + ((+):Grade 1, Mild)”. The “Banff grade: Tubulitis” value [4, 8] was “− ((−):Grade 0, Normal)”, the “Banff grade: Vasculitis” value [4, 8] was “+++ ((+++):Grade 3, Severe); also recorded: + ((+):Grade 1, Mild)” and the proteinuria ([5]; Compound (I) 10 mg/kg day 28 to 60 after brief tacrolimus 1 mg/kg day 0-9) was “decreased the progression of proteinuria”. The plasma creatinine level ([5]; Compound (I) 10 mg/kg day 28 to 60 after brief tacrolimus 1 mg/kg day 0-9, entire study period) was less than 1.5 mg/dL, the proteinuria ([5]; Compound (I) 15 mg/kg day 28 to 60 after brief tacrolimus 1 mg/kg day 0-9) was “decreased the progression of proteinuria” and the plasma creatinine ([5]; Compound (I) 15 mg/kg/day day 28 to 60 after brief tacrolimus, increased from week 3 to week 9) was “it was reversed and maintained in a normal level”. For the same compound, the plasma creatinine [6, 9] was “tended to be at a normal level”, the proteinuria [6, 9] was “tended to be at a normal level” and the recipient kidney function ([6]; rescue 20 mg/kg PO for 3 weeks, immediate effect) was “did not show an immediate improvement”.
